Here are results for seven compounds from PubChem BioAssay (NCI).

Some test systems named below: HCT-116 colon; SK-MEL-5 melanoma; HOP-62 NSCLC; SN12C renal; SF-539 CNS; SNB-75 CNS; ACHN renal; HOP-92 NSCLC; MDA-MB-231 breast; HT29 colon.
Test in all cases: NCI-60 cell line screen, 48 h

Structures are written as SMILES.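 Cells were grown in 96-well plates and exposed to each compound for 48 hours at five concentrations; endpoints were interpolated linearly between bracketing concentrations, or set to the highest concentration if not reached. GI50: concentration for 50% inhibition of growth. The concentration for full growth arrest is given as TGI.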

For the compound `CNCCCNCCCN1C(=O)c2ccc3c4c(ccc(c24)C1=O)C(=O)N(CCCNCc1ccccc1OC)C3=O`, the GI50 in the test with HCT-116 colon was 0.27 µM; in the test on SK-MEL-5 melanoma, 1.1 µM; in the test with HOP-62 NSCLC it was 1.24 µM; in the test with SN12C renal, 1.46 µM; in the test on SF-539 CNS, 0.782 µM; with SNB-75 CNS, 1.11 µM. Moreover, the GI50 is 0.5 µM in the test on ACHN renal, 2.13 µM in the test with HOP-92 NSCLC, 2.9 µM with MDA-MB-231 breast and 0.381 µM in the test with HT29 colon. In addition, the TGI with HCT-116 colon is 1.21 µM; with SK-MEL-5 melanoma it was 2.32 µM; with HOP-62 NSCLC, 4.44 µM; in the test with SN12C renal it was 3.41 µM; in the test with SF-539 CNS it was 2.29 µM; with SNB-75 CNS, 2.51 µM. Besides, the TGI in the test with ACHN renal is 3.96 µM; in the test on HOP-92 NSCLC, 8.05 µM; with MDA-MB-231 breast it was 14 µM; in the test with HT29 colon, 1.95 µM.

On to `CCOC(=O)Nc1nc2c(C)cccc2s1`, for which the GI50 in the test with HCT-116 colon was 45.3 µM; in the test with SK-MEL-5 melanoma, 28 µM; in the test with HOP-62 NSCLC, more than 100 µM; in the test with SN12C renal it was 44.7 µM; in the test on SF-539 CNS, 77.7 µM; with SNB-75 CNS, 30.9 µM. Besides, the GI50 was 74.6 µM with ACHN renal, 13.9 µM with HOP-92 NSCLC, 36.1 µM in the test with MDA-MB-231 breast and 46.8 µM with HT29 colon. Also, the TGI in the test on HCT-116 colon is more than 100 µM; in the test on SK-MEL-5 melanoma, 91.5 µM; in the test on HOP-62 NSCLC it was more than 100 µM; in the test with SN12C renal it was more than 100 µM; in the test on SF-539 CNS, more than 100 µM; in the test on SNB-75 CNS, more than 100 µM. Moreover, the TGI was more than 100 µM in the test on ACHN renal, 71.5 µM in the test with HOP-92 NSCLC, more than 100 µM with MDA-MB-231 breast and more than 100 µM with HT29 colon.

Consider `CN(C)CCCn1c2nc(=O)[nH]c(=O)c-2nc2cc(Cl)c(Cl)cc21`, for which the GI50 in the test with HCT-116 colon is 0.418 µM; in the test with SK-MEL-5 melanoma it was 1.65 µM; in the test on HOP-62 NSCLC it was 4.14 µM; in the test on SN12C renal, 3.09 µM; in the test on SF-539 CNS it was 3.24 µM; in the test on SNB-75 CNS, 18 µM. For the same compound, the GI50 in the test with ACHN renal is 3.46 µM; with HOP-92 NSCLC, 12.2 µM; in the test with MDA-MB-231 breast, 3.88 µM; in the test on HT29 colon, 2.13 µM. The TGI was 6.71 µM with HCT-116 colon; 3.12 µM in the test with SK-MEL-5 melanoma; 15.9 µM in the test on HOP-62 NSCLC; 10.1 µM in the test on SN12C renal; 12.2 µM in the test with SF-539 CNS; 32.5 µM with SNB-75 CNS. Also, the TGI in the test with ACHN renal stood at 11.8 µM; with HOP-92 NSCLC it was 25.8 µM; in the test with MDA-MB-231 breast, 14.9 µM; in the test on HT29 colon, 11.9 µM.

For `COc1ccccc1/C=C/C(=O)/C=C/c1ccccc1OC`, the GI50 in the test with HCT-116 colon is 1.27 µM; in the test with SK-MEL-5 melanoma, 1.5 µM; with HOP-62 NSCLC it was 3 µM; with SN12C renal, 2.06 µM; in the test on SF-539 CNS, 2.82 µM; in the test on SNB-75 CNS it was 2.23 µM. The GI50 was 1.91 µM with ACHN renal, 2.1 µM with HOP-92 NSCLC, 2.97 µM in the test on MDA-MB-231 breast and 2.24 µM in the test with HT29 colon. For the same compound, the TGI was found to be 2.62 µM in the test with HCT-116 colon; 2.87 µM with SK-MEL-5 melanoma; 6.92 µM with HOP-62 NSCLC; 5.21 µM in the test with SN12C renal; 6.33 µM with SF-539 CNS; 11.6 µM with SNB-75 CNS. Further, the TGI in the test with ACHN renal worked out at 3.49 µM; with HOP-92 NSCLC, 5.04 µM; in the test with MDA-MB-231 breast it was 8.75 µM; with HT29 colon, 5.04 µM.

Consider `N#Cc1ccc2c(c1)C(=O)c1c-2n(CCCN)c(=O)c2cc([N+](=O)[O-])ccc12`, for which the GI50 in the test with HCT-116 colon is 0.199 µM; in the test on SK-MEL-5 melanoma it was 0.248 µM; in the test on HOP-62 NSCLC, 0.259 µM; in the test with SN12C renal, 0.261 µM; with SF-539 CNS, 0.219 µM; with SNB-75 CNS, 0.288 µM. Moreover, the GI50 was 0.0699 µM with ACHN renal, 1.08 µM in the test on HOP-92 NSCLC, 1.5 µM with MDA-MB-231 breast and 0.0718 µM in the test on HT29 colon. Besides, the TGI came out at 1.59 µM in the test with HCT-116 colon; 1.35 µM in the test on SK-MEL-5 melanoma; 1.79 µM with HOP-62 NSCLC; 1.82 µM with SN12C renal; 1.31 µM in the test with SF-539 CNS; 1.24 µM in the test with SNB-75 CNS. Besides, the TGI in the test on ACHN renal was 1.18 µM; with HOP-92 NSCLC, 2.46 µM; in the test with MDA-MB-231 breast, 3.04 µM; in the test with HT29 colon, 0.562 µM.

For the compound `Cn1c(=O)c(Oc2ccccc2)cc2cnc(NC3CCOCC3)nc21`, the GI50 with HCT-116 colon, in the test with SK-MEL-5 melanoma, in the test with HOP-62 NSCLC, with SN12C renal, with SF-539 CNS and with SNB-75 CNS was more than 25 µM throughout. Moreover, the GI50 with ACHN renal, in the test on HOP-92 NSCLC, in the test with MDA-MB-231 breast and in the test on HT29 colon was more than 25 µM throughout. For the same compound, the TGI with HCT-116 colon, in the test on SK-MEL-5 melanoma, in the test with HOP-62 NSCLC, in the test with SN12C renal, in the test on SF-539 CNS and in the test on SNB-75 CNS was more than 25 µM throughout. Moreover, the TGI with ACHN renal, in the test with HOP-92 NSCLC, in the test with MDA-MB-231 breast and with HT29 colon was more than 25 µM in each case.

Consider `COc1cc(/C=C2\C(=O)Nc3cccc(Cl)c32)cc(OC)c1OC`, for which the GI50 in the test on HCT-116 colon was more than 100 µM; in the test on SK-MEL-5 melanoma it was more than 100 µM; in the test on HOP-62 NSCLC, 32.6 µM; in the test with SN12C renal, more than 100 µM; in the test on SF-539 CNS, more than 100 µM; in the test with SNB-75 CNS, 21.9 µM. Moreover, the GI50 in the test on ACHN renal is 53.2 µM; in the test with HOP-92 NSCLC, 23.9 µM; with MDA-MB-231 breast, 33.3 µM; with HT29 colon it was more than 100 µM. The TGI in the test on HCT-116 colon was more than 100 µM; in the test with SK-MEL-5 melanoma, more than 100 µM; in the test on HOP-62 NSCLC, more than 100 µM; in the test on SN12C renal, more than 100 µM; in the test with SF-539 CNS, more than 100 µM; in the test with SNB-75 CNS it was 84 µM. Also, the TGI was more than 100 µM in the test on ACHN renal, 93.2 µM in the test with HOP-92 NSCLC, more than 100 µM in the test with MDA-MB-231 breast and more than 100 µM in the test on HT29 colon.
